Target: hCG (whole human chorionic gonadotropin) (Homo sapiens, UniProt P0DN86)
Experiment: microscale thermophoresis
Type: binding

SMILES: CO[C@@]1(NC(=O)C2SC(=C(C(N)=O)C(=O)O)S2)C(=O)N2C(C(=O)O)=C(CSc3nnnn3C)CS[C@@H]21 (stereo partly drawn) [Cefotetan, (6R,7S)-7-[[4-(2-amino-1-carboxy-2-oxoethylidene)-1,3-dithietane-2-carbonyl]amino]-7-methoxy-3-[(1-methyltetrazol-5-yl)sulfanylmethyl]-8-oxo-5-thia-1-azabicyclo[4.2.0]oct-2-ene-2-carboxylic acid]
- Kd: 4.6 ± 3 µM

From PMC12150210 (RSC Advances, 2025)
